Measured values published in ChEMBL document CHEMBL1140967, “Regiospecific microwave-assisted synthesis and cytotoxic activity against human breast cancer cells of (RS)-6-substituted-7- or 9-(2,3-dihydro-5H-1,4-benzodioxepin-3-yl)-7H- or -9H-purines” (Eur J Med Chem, 2008).

Legend:
MCF7 [1] = assay: Antiproliferative activity against human MCF7 cells after 6 days by SRB assay; details: MCF7, 144 h
MCF7 [2] = assay: Cell cycle arrest in human MCF7 cells assessed as accumulation at G2/M phase at cytotoxic IC50 after 48 hrs by FACS assay; type: functional
MCF7 [3] = assay: Cell cycle arrest in human MCF7 cells assessed as accumulation at G0/G1 phase at cytotoxic IC50 after 48 hrs by FACS assay; type: functional
MCF7 [4] = assay: Induction of apoptosis in human MCF7 cells at cytotoxic IC50 after 48 hrs by Annexin-V based assay; type: functional
MCF7 [5] = assay: Cell cycle arrest in human MCF7 cells assessed as accumulation at S phase at cytotoxic IC50 after 48 hrs by FACS assay; type: functional

Row | Compound | IC50 (MCF7 [1]) [µM] | also measured
1 | CSc1ncnc2[nH]cnc12 | 23.6 | –
2 | Clc1ccc(Sc2ncnc3c2ncn3C2COc3ccccc3CO2)c(Cl)c1 (racemic) | 12 | –
3 | c1ccc2c(c1)COC(n1cnc3ncnc(OCC4CCCCC4)c31)CO2 (racemic) | 13.4 | –
4 | Clc1ccc(Sc2ncnc3[nH]cnc23)c(Cl)c1 | 21.4 | –
5 | Clc1ccc(Sc2ncnc3ncn(C4COc5ccccc5CO4)c23)c(Cl)c1 (racemic) | 8.4 | Activity (MCF7 [2]): 19.16%; Activity (MCF7 [3]): 58.1%; Activity (MCF7 [4]): 65.28%; Activity (MCF7 [5]): 22.73%
6 | Fc1ccc(Sc2ncnc3c2ncn3C2COc3ccccc3CO2)cc1 (racemic) | 11.2 | –
7 | c1ccc(Sc2ncnc3[nH]cnc23)cc1 | 31 | –
8 | CSc1ncnc2ncn(C3COc4ccccc4CO3)c12 (racemic) | 31.8 | –
9 | c1ccc2c(c1)COC(n1cnc3c(OCC4CCCCC4)ncnc31)CO2 (racemic) | 11.6 | –
10 | Fc1ccc(Sc2ncnc3[nH]cnc23)cc1 | 31.6 | –
11 | c1ccc(Oc2ncnc3ncn(C4COc5ccccc5CO4)c23)cc1 (racemic) | 21.1 | –
12 | O=c1ccn(C2COc3ccccc3CO2)c(=O)[nH]1 (configuration not stated) | 5 | –
13 | c1ccc(Sc2ncnc3c2ncn3C2COc3ccccc3CO2)cc1 (racemic) | 7.12 | Activity (MCF7 [2]): 11.08%; Activity (MCF7 [3]): 59.1%; Activity (MCF7 [4]): 73.37%; Activity (MCF7 [5]): 26.82%
14 | Nc1nc(OCC2CCCCC2)c2nc[nH]c2n1 | 24.2 | –
15 | c1ccc(Oc2ncnc3c2ncn3C2COc3ccccc3CO2)cc1 (racemic) | 24.7 | –
16 | O=c1[nH]cc(F)c(=O)[nH]1 [FLUOROURACIL] | 4.32 | –
17 | CSc1ncnc2c1ncn2C1COc2ccccc2CO1 (racemic) | 24 | –
18 | C=CCOc1ncnc2ncn(C3COc4ccccc4CO3)c12 (racemic) | 20.9 | –
19 | Fc1ccc(Sc2ncnc3ncn(C4COc5ccccc5CO4)c23)cc1 (racemic) | 14.1 | –
20 | c1nc(OCC2CCCCC2)c2nc[nH]c2n1 | 32.3 | –
21 | CC(=O)O[C@H]1C(=O)[C@@]2(C)[C@H]([C@H](OC(=O)c3ccccc3)[C@]3(O)C[C@H](OC(=O)[C@H](O)[C@@H](NC(=O)c4ccccc4)c4ccccc4)C(C)=C1C3(C)C)[C@]1(OC(C)=O)CO[C@@H]1C[C@@H]2O [PACLITAXEL] | – | Activity (MCF7 [4]): 43%
22 | C=CCOc1ncnc2c1ncn2C1COc2ccccc2CO1 (racemic) | 5.04 | Activity (MCF7 [2]): 7.37%; Activity (MCF7 [3]): 55.63%; Activity (MCF7 [4]): 44.47%; Activity (MCF7 [5]): 37%
23 | C=CCOc1ncnc2[nH]cnc12 | 44.7 | –
24 | c1ccc(Sc2ncnc3ncn(C4COc5ccccc5CO4)c23)cc1 (racemic) | 15.6 | –
25 | c1ccc(Oc2ncnc3[nH]cnc23)cc1 | 28.4 | –
